Measured values taken from patent publication US9884842B2, “Combretastatin analogs” (The Board of Trustees of the University of Arkansas, priority 2013, dated 2018).

Test system: U251
Experiment: NCI growth inhibition and cytotoxicity screen, CNS Cancer panel
Conditions: Homo sapiens, U-251

SMILES	GI50
COc1cc(/C(C#N)=C\c2cc3ccccc3s2)cc(OC)c1OC [Formula (I)(a)]	< 10 nM

Same assay, conditions: Homo sapiens, U-251, read-out: LC50

SMILES	CC50
COc1cc(/C(C#N)=C\c2cc3ccccc3s2)cc(OC)c1OC [Formula (I)(a)]	> 100000 nM

Test system: HCT-116
Experiment: NCI growth inhibition and cytotoxicity screen, Colon Cancer panel
Conditions: Homo sapiens, HCT-116

SMILES	GI50
COc1cc(/C(C#N)=C\c2cc3ccccc3s2)cc(OC)c1OC [Formula (I)(a)]	< 10 nM

Same assay, conditions: Homo sapiens, HCT-116, read-out: LC50

SMILES	CC50
COc1cc(/C(C#N)=C\c2cc3ccccc3s2)cc(OC)c1OC [Formula (I)(a)]	> 100000 nM

Test system: PC-3
Experiment: NCI growth inhibition and cytotoxicity screen, Prostate Cancer panel
Conditions: Homo sapiens, PC-3

SMILES	GI50
COc1cc(/C(C#N)=C\c2cc3ccccc3s2)cc(OC)c1OC [Formula (I)(a)]	< 10 nM

Same assay, conditions: Homo sapiens, PC-3, read-out: LC50

SMILES	CC50
COc1cc(/C(C#N)=C\c2cc3ccccc3s2)cc(OC)c1OC [Formula (I)(a)]	> 100000 nM

Test system: UACC-62
Experiment: NCI growth inhibition and cytotoxicity screen, Melanoma panel
Conditions: Homo sapiens, UACC-62

SMILES	GI50
COc1cc(/C(C#N)=C\c2cc3ccccc3s2)cc(OC)c1OC [Formula (I)(a)]	< 10 nM

Same assay, conditions: Homo sapiens, UACC-62, read-out: LC50

SMILES	CC50
COc1cc(/C(C#N)=C\c2cc3ccccc3s2)cc(OC)c1OC [Formula (I)(a)]	> 100000 nM

Test system: LOX-IMVI
Experiment: as above
Conditions: Homo sapiens

SMILES	GI50
COc1cc(/C(C#N)=C\c2cc3ccccc3s2)cc(OC)c1OC [Formula (I)(a)]	< 10 nM

Same assay, conditions: Homo sapiens, read-out: LC50

SMILES	CC50
COc1cc(/C(C#N)=C\c2cc3ccccc3s2)cc(OC)c1OC [Formula (I)(a)]	> 100000 nM

Test system: SNB-75
Experiment: NCI growth inhibition and cytotoxicity screen, CNS Cancer panel
Conditions: Homo sapiens, SNB-75

SMILES	GI50
COc1cc(/C(C#N)=C\c2cc3ccccc3s2)cc(OC)c1OC [Formula (I)(a)]	< 10 nM

Same assay, conditions: Homo sapiens, SNB-75, read-out: LC50

SMILES	CC50
COc1cc(/C(C#N)=C\c2cc3ccccc3s2)cc(OC)c1OC [Formula (I)(a)]	> 100000 nM

Test system: HCT-15
Experiment: NCI growth inhibition and cytotoxicity screen, Colon Cancer panel
Conditions: Homo sapiens, HCT-15

SMILES	GI50
COc1cc(/C(C#N)=C\c2cc3ccccc3s2)cc(OC)c1OC [Formula (I)(a)]	< 10 nM

Same assay, conditions: Homo sapiens, HCT-15, read-out: LC50

SMILES	CC50
COc1cc(/C(C#N)=C\c2cc3ccccc3s2)cc(OC)c1OC [Formula (I)(a)]	> 100000 nM

Test system: CAKI-1
Experiment: NCI growth inhibition and cytotoxicity screen, Renal Cancer panel
Conditions: Homo sapiens, CAKI-1

SMILES	GI50
COc1cc(/C(C#N)=C\c2cc3ccccc3s2)cc(OC)c1OC [Formula (I)(a)]	37.8 nM

Same assay, conditions: Homo sapiens, CAKI-1, read-out: LC50

SMILES	CC50
COc1cc(/C(C#N)=C\c2cc3ccccc3s2)cc(OC)c1OC [Formula (I)(a)]	> 100000 nM

Test system: RXF 393
Experiment: as above
Conditions: Homo sapiens, RXF 393

SMILES	GI50
COc1cc(/C(C#N)=C\c2cc3ccccc3s2)cc(OC)c1OC [Formula (I)(a)]	< 10 nM

Same assay, conditions: Homo sapiens, RXF 393, read-out: LC50

SMILES	CC50
COc1cc(/C(C#N)=C\c2cc3ccccc3s2)cc(OC)c1OC [Formula (I)(a)]	> 100000 nM

Test system: KM12
Experiment: NCI growth inhibition and cytotoxicity screen, Colon Cancer panel
Conditions: Homo sapiens, KM12

SMILES	GI50
COc1cc(/C(C#N)=C\c2cc3ccccc3s2)cc(OC)c1OC [Formula (I)(a)]	< 10 nM

Same assay, conditions: Homo sapiens, KM12, read-out: LC50

SMILES	CC50
COc1cc(/C(C#N)=C\c2cc3ccccc3s2)cc(OC)c1OC [Formula (I)(a)]	> 100000 nM

Test system: HS 578T
Experiment: NCI growth inhibition and cytotoxicity screen, Breast Cancer panel
Conditions: Homo sapiens

SMILES	GI50
COc1cc(/C(C#N)=C\c2cc3ccccc3s2)cc(OC)c1OC [Formula (I)(a)]	< 10 nM

Same assay, conditions: Homo sapiens, read-out: LC50

SMILES	CC50
COc1cc(/C(C#N)=C\c2cc3ccccc3s2)cc(OC)c1OC [Formula (I)(a)]	> 100000 nM

Test system: SR
Experiment: NCI growth inhibition and cytotoxicity screen, Leukemia panel
Conditions: Homo sapiens

SMILES	GI50
COc1cc(/C(C#N)=C\c2cc3ccccc3s2)cc(OC)c1OC [Formula (I)(a)]	< 10 nM

Same assay, conditions: Homo sapiens, read-out: LC50

SMILES	CC50
COc1cc(/C(C#N)=C\c2cc3ccccc3s2)cc(OC)c1OC [Formula (I)(a)]	> 100000 nM

Test system: MOLT-4
Experiment: as above
Conditions: Homo sapiens, MOLT-4

SMILES	GI50
COc1cc(/C(C#N)=C\c2cc3ccccc3s2)cc(OC)c1OC [Formula (I)(a)]	< 10 nM

Same assay, conditions: Homo sapiens, MOLT-4, read-out: LC50

SMILES	CC50
COc1cc(/C(C#N)=C\c2cc3ccccc3s2)cc(OC)c1OC [Formula (I)(a)]	> 100000 nM

Test system: SNB-19
Experiment: NCI growth inhibition and cytotoxicity screen, CNS Cancer panel
Conditions: Homo sapiens, SNB-19

SMILES	GI50
COc1cc(/C(C#N)=C\c2cc3ccccc3s2)cc(OC)c1OC [Formula (I)(a)]	39.1 nM

Same assay, conditions: Homo sapiens, SNB-19, read-out: LC50

SMILES	CC50
COc1cc(/C(C#N)=C\c2cc3ccccc3s2)cc(OC)c1OC [Formula (I)(a)]	> 100000 nM

Test system: UO-31
Experiment: NCI growth inhibition and cytotoxicity screen, Renal Cancer panel
Conditions: Homo sapiens, UO-31

SMILES	GI50
COc1cc(/C(C#N)=C\c2cc3ccccc3s2)cc(OC)c1OC [Formula (I)(a)]	< 10 nM

Same assay, conditions: Homo sapiens, UO-31, read-out: LC50

SMILES	CC50
COc1cc(/C(C#N)=C\c2cc3ccccc3s2)cc(OC)c1OC [Formula (I)(a)]	> 100000 nM

Test system: HT29
Experiment: NCI growth inhibition and cytotoxicity screen, Colon Cancer panel
Conditions: Homo sapiens, HT-29

SMILES	GI50
COc1cc(/C(C#N)=C\c2cc3ccccc3s2)cc(OC)c1OC [Formula (I)(a)]	< 10 nM

Same assay, conditions: Homo sapiens, HT-29, read-out: LC50

SMILES	CC50
COc1cc(/C(C#N)=C\c2cc3ccccc3s2)cc(OC)c1OC [Formula (I)(a)]	> 100000 nM

Test system: NCI-H226
Experiment: NCI growth inhibition and cytotoxicity screen, Lung Cancer panel
Conditions: Homo sapiens, NCI-H226

SMILES	GI50
COc1cc(/C(C#N)=C\c2cc3ccccc3s2)cc(OC)c1OC [Formula (I)(a)]	17.9 nM

Same assay, conditions: Homo sapiens, NCI-H226, read-out: LC50

SMILES	CC50
COc1cc(/C(C#N)=C\c2cc3ccccc3s2)cc(OC)c1OC [Formula (I)(a)]	> 100000 nM

Test system: UACC-257
Experiment: NCI growth inhibition and cytotoxicity screen, Melanoma panel
Conditions: Homo sapiens, UACC-257

SMILES	GI50
COc1cc(/C(C#N)=C\c2cc3ccccc3s2)cc(OC)c1OC [Formula (I)(a)]	< 10 nM

Same assay, conditions: Homo sapiens, UACC-257, read-out: LC50

SMILES	CC50
COc1cc(/C(C#N)=C\c2cc3ccccc3s2)cc(OC)c1OC [Formula (I)(a)]	> 100000 nM

Test system: NCI-H23
Experiment: NCI growth inhibition and cytotoxicity screen, Lung Cancer panel
Conditions: Homo sapiens, NCI-H23

SMILES	GI50
COc1cc(/C(C#N)=C\c2cc3ccccc3s2)cc(OC)c1OC [Formula (I)(a)]	< 10 nM

Same assay, conditions: Homo sapiens, NCI-H23, read-out: LC50

SMILES	CC50
COc1cc(/C(C#N)=C\c2cc3ccccc3s2)cc(OC)c1OC [Formula (I)(a)]	> 100000 nM

Test system: COLO 205
Experiment: NCI growth inhibition and cytotoxicity screen, Colon Cancer panel
Conditions: Homo sapiens, COLO 205

SMILES	GI50
COc1cc(/C(C#N)=C\c2cc3ccccc3s2)cc(OC)c1OC [Formula (I)(a)]	< 10 nM

Same assay, conditions: Homo sapiens, COLO 205, read-out: LC50

SMILES	CC50
COc1cc(/C(C#N)=C\c2cc3ccccc3s2)cc(OC)c1OC [Formula (I)(a)]	250 nM

Test system: MCF7
Experiment: NCI growth inhibition and cytotoxicity screen, Breast Cancer panel
Conditions: Homo sapiens, MCF7

SMILES	GI50
COc1cc(/C(C#N)=C\c2cc3ccccc3s2)cc(OC)c1OC [Formula (I)(a)]	< 10 nM

Same assay, conditions: Homo sapiens, MCF7, read-out: LC50

SMILES	CC50
COc1cc(/C(C#N)=C\c2cc3ccccc3s2)cc(OC)c1OC [Formula (I)(a)]	> 100000 nM

Test system: M14
Experiment: NCI growth inhibition and cytotoxicity screen, Melanoma panel
Conditions: Homo sapiens, M14

SMILES	GI50
COc1cc(/C(C#N)=C\c2cc3ccccc3s2)cc(OC)c1OC [Formula (I)(a)]	< 10 nM

Same assay, conditions: Homo sapiens, M14, read-out: LC50

SMILES	CC50
COc1cc(/C(C#N)=C\c2cc3ccccc3s2)cc(OC)c1OC [Formula (I)(a)]	> 100000 nM

Test system: RPMI-8226
Experiment: NCI growth inhibition and cytotoxicity screen, Leukemia panel
Conditions: Homo sapiens, RPMI-8226

SMILES	GI50
COc1cc(/C(C#N)=C\c2cc3ccccc3s2)cc(OC)c1OC [Formula (I)(a)]	< 10 nM

Same assay, conditions: Homo sapiens, RPMI-8226, read-out: LC50

SMILES	CC50
COc1cc(/C(C#N)=C\c2cc3ccccc3s2)cc(OC)c1OC [Formula (I)(a)]	> 100000 nM

Test system: OVCAR-8
Experiment: NCI growth inhibition and cytotoxicity screen, Ovarian Cancer panel
Conditions: Homo sapiens, OVCAR-8

SMILES	GI50
COc1cc(/C(C#N)=C\c2cc3ccccc3s2)cc(OC)c1OC [Formula (I)(a)]	< 10 nM

Same assay, conditions: Homo sapiens, OVCAR-8, read-out: LC50

SMILES	CC50
COc1cc(/C(C#N)=C\c2cc3ccccc3s2)cc(OC)c1OC [Formula (I)(a)]	> 100000 nM

Test system: NCI/ADR-RES
Experiment: as above
Conditions: Homo sapiens

SMILES	GI50
COc1cc(/C(C#N)=C\c2cc3ccccc3s2)cc(OC)c1OC [Formula (I)(a)]	< 10 nM

Same assay, conditions: Homo sapiens, read-out: LC50

SMILES	CC50
COc1cc(/C(C#N)=C\c2cc3ccccc3s2)cc(OC)c1OC [Formula (I)(a)]	> 100000 nM
